Laboratory results taken from patent US11717508B2, “Compounds, compositions, and methods for inhibiting bacterial growth” (priority 2016, dated 2023).
Where two headings read alike, the source gives them in different places.

System: DosRST regulon
Type: cell-based
Conditions: for WT DMSO/WT HC102A Fold change / log2 Fold change: upregulated
[1] = Rv2626c, WT Mtb treated with HC102A compared to DMSO
[2] = Rv2627c, WT Mtb treated with HC102A compared to DMSO
[3] = Rv2628, WT Mtb treated with HC102A compared to DMSO
[4] = Rv2629, WT Mtb treated with HC102A compared to DMSO
[5] = Rv2630, WT Mtb treated with HC102A compared to DMSO
[6] = Rv2631, WT Mtb treated with HC102A compared to DMSO
[7] = Rv3083, WT Mtb treated with HC102A compared to DMSO
[8] = Rv3084 lipR, WT Mtb treated with HC102A compared to DMSO
[9] = Rv3085, WT Mtb treated with HC102A compared to DMSO
[10] = Rv3127, WT Mtb treated with HC102A compared to DMSO
[11] = Rv3130c, WT Mtb treated with HC102A compared to DMSO
[12] = Rv3131, WT Mtb treated with HC102A compared to DMSO
[13] = Rv3132c, WT Mtb treated with HC102A compared to DMSO
[14] = Rv3133c, WT Mtb treated with HC102A compared to DMSO
[15] = Rv3134c, WT Mtb treated with HC102A compared to DMSO
[16] = Rv3839, WT Mtb treated with HC102A compared to DMSO
[17] = WT Mtb treated with HC102A compared to DMSO
[18] = WT Mtb treated with HC102A, replicate 1
[19] = WT Mtb treated with HC102A, replicate 2

Structure (SMILES): C[C@@H]1CC(C)(C)C[C@]2(C1)NC(=O)NC2=O (racemic) [HC102A, 7,7,9-trimethyl-1,3-diazaspiro[4.5]decane-2,4-dione]
- log2 Fold change, gene MT2700 (Rv2625c, WT Mtb treated with HC102A compared to DMSO): −5.149
- Counts per million (CPM) WT_HC102A1, gene MT2700 (Rv2625c, WT Mtb treated with HC102A, replicate 1): 146.1 CPM
- Counts per million (CPM) WT_HC102A2, gene MT2700 (Rv2625c, WT Mtb treated with HC102A, replicate 2): 111.9 CPM
- Fold change, gene MT2701 [1]: 0.04398
- log2 Fold change, gene MT2701 [1]: −4.507
- Counts per million (CPM) WT_HC102A1, gene MT2701 (Rv2626c, WT Mtb treated with HC102A, replicate 1): 447.5 CPM
- Counts per million (CPM) WT_HC102A2, gene MT2701 (Rv2626c, WT Mtb treated with HC102A, replicate 2): 554.5 CPM
- Fold change, gene MT2702 [2]: 0.01981
- log2 Fold change, gene MT2702 [2]: −5.658
- Counts per million (CPM) WT_HC102A1, gene MT2702 (Rv2627c, WT Mtb treated with HC102A, replicate 1): 101.3 CPM
- Counts per million (CPM) WT_HC102A2, gene MT2702 (Rv2627c, WT Mtb treated with HC102A, replicate 2): 156.7 CPM
- Fold change, gene MT2703 [3]: 0.03499
- log2 Fold change, gene MT2703 [3]: −4.837
- Counts per million (CPM) WT_HC102A1, gene MT2703 (Rv2628, WT Mtb treated with HC102A, replicate 1): 20.64 CPM
- Counts per million (CPM) WT_HC102A2, gene MT2703 (Rv2628, WT Mtb treated with HC102A, replicate 2): 33.42 CPM
- Fold change, gene MT2704 [4]: 0.09873
- log2 Fold change, gene MT2704 [4]: −3.34
- Counts per million (CPM) WT_HC102A1, gene MT2704 (Rv2629, WT Mtb treated with HC102A, replicate 1): 540.6 CPM
- Counts per million (CPM) WT_HC102A2, gene MT2704 (Rv2629, WT Mtb treated with HC102A, replicate 2): 660.1 CPM
- Fold change, gene MT2705 [5]: 0.0994
- log2 Fold change, gene MT2705 [5]: −3.331
- Counts per million (CPM) WT_HC102A1, gene MT2705 (Rv2630, WT Mtb treated with HC102A, replicate 1): 71.28 CPM
- Counts per million (CPM) WT_HC102A2, gene MT2705 (Rv2630, WT Mtb treated with HC102A, replicate 2): 56.05 CPM
- Fold change, gene MT2707 [6]: 0.1179
- log2 Fold change, gene MT2707 [6]: −3.085
- Counts per million (CPM) WT_HC102A1, gene MT2707 (Rv2631, WT Mtb treated with HC102A, replicate 1): 110.9 CPM
- Counts per million (CPM) WT_HC102A2, gene MT2707 (Rv2631, WT Mtb treated with HC102A, replicate 2): 72.59 CPM
- Fold change, gene MT3168 [7]: 0.2851
- log2 Fold change, gene MT3168 [7]: −1.81
- Counts per million (CPM) WT_HC102A1, gene MT3168 (Rv3083, WT Mtb treated with HC102A, replicate 1): 100.3 CPM
- Counts per million (CPM) WT_HC102A2, gene MT3168 (Rv3083, WT Mtb treated with HC102A, replicate 2): 66.84 CPM
- Fold change, gene MT3169 [8]: 0.2724
- log2 Fold change, gene MT3169 [8]: −1.876
- Counts per million (CPM) WT_HC102A1, gene MT3169 (Rv3084 lipR, WT Mtb treated with HC102A, replicate 1): 16.74 CPM
- Counts per million (CPM) WT_HC102A2, gene MT3169 (Rv3084 lipR, WT Mtb treated with HC102A, replicate 2): 9.205 CPM
- Fold change, gene MT3170 [9]: 0.3224
- log2 Fold change, gene MT3170 [9]: −1.633
- Counts per million (CPM) WT_HC102A1, gene MT3170 (Rv3085, WT Mtb treated with HC102A, replicate 1): 11.79 CPM
- Counts per million (CPM) WT_HC102A2, gene MT3170 (Rv3085, WT Mtb treated with HC102A, replicate 2): 8.619 CPM
- Fold change, gene MT3212 [10]: 0.0633
- log2 Fold change, gene MT3212 [10]: −3.982
- Counts per million (CPM) WT_HC102A1, gene MT3212 (Rv3127, WT Mtb treated with HC102A, replicate 1): 690.1 CPM
- Counts per million (CPM) WT_HC102A2, gene MT3212 (Rv3127, WT Mtb treated with HC102A, replicate 2): 898.2 CPM
- Fold change, gene MT3216 [11]: 0.05498
- log2 Fold change, gene MT3216 [11]: −4.185
- Counts per million (CPM) WT_HC102A1, gene MT3216 (Rv3130c, WT Mtb treated with HC102A, replicate 1): 1,395.93 CPM
- Counts per million (CPM) WT_HC102A2, gene MT3216 (Rv3130c, WT Mtb treated with HC102A, replicate 2): 1,787.99 CPM
- Fold change, gene MT3217 [12]: 0.03013
- log2 Fold change, gene MT3217 [12]: −5.053
- Counts per million (CPM) WT_HC102A1, gene MT3217 (Rv3131, WT Mtb treated with HC102A, replicate 1): 415.6 CPM
- Counts per million (CPM) WT_HC102A2, gene MT3217 (Rv3131, WT Mtb treated with HC102A, replicate 2): 421.7 CPM
- Fold change, gene MT3218 [13]: 0.0994
- log2 Fold change, gene MT3218 [13]: −3.331
- Counts per million (CPM) WT_HC102A1, gene MT3218 (Rv3132c, WT Mtb treated with HC102A, replicate 1): 439 CPM
- Counts per million (CPM) WT_HC102A2, gene MT3218 (Rv3132c, WT Mtb treated with HC102A, replicate 2): 364.8 CPM
- Fold change, gene MT3219 [14]: 0.07283
- log2 Fold change, gene MT3219 [14]: −3.779
- Counts per million (CPM) WT_HC102A1, gene MT3219 (Rv3133c, WT Mtb treated with HC102A, replicate 1): 233.8 CPM
- Counts per million (CPM) WT_HC102A2, gene MT3219 (Rv3133c, WT Mtb treated with HC102A, replicate 2): 174 CPM
- Fold change, gene MT3220 [15]: 0.04505
- log2 Fold change, gene MT3220 [15]: −4.472
- Counts per million (CPM) WT_HC102A1, gene MT3220 (Rv3134c, WT Mtb treated with HC102A, replicate 1): 264.6 CPM
- Counts per million (CPM) WT_HC102A2, gene MT3220 (Rv3134c, WT Mtb treated with HC102A, replicate 2): 171.8 CPM
- Fold change, gene MT3947 [16]: 0.2314
- log2 Fold change, gene MT3947 [16]: −2.111
- Counts per million (CPM) WT_HC102A1, gene MT3947 (Rv3839, WT Mtb treated with HC102A, replicate 1): 25.93 CPM
- Counts per million (CPM) WT_HC102A2, gene MT3947 (Rv3839, WT Mtb treated with HC102A, replicate 2): 7.681 CPM
- Fold change, gene MT0598 [17]: 0.2421
- Fold change, gene MT0600 [17]: 0.1586
- Fold change, gene MT1096 [17]: 0.3436
- Fold change, gene MT1385 [17]: 0.3712
- Fold change, gene MT1775 [17]: 0.2046
- Fold change, gene MT1777 [17]: 0.1265
- Fold change, gene MT2088 [17]: 0.0678
- Fold change, gene MT2090 [17]: 0.1133
- Fold change, gene MT3209 [17]: 0.4
- Fold change, gene MT3210 [17]: 0.04949
- log2 Fold change, gene MT0598 [17]: −2.046
- log2 Fold change, gene MT0600 [17]: −2.656
- log2 Fold change, gene MT1096 [17]: −1.541
- log2 Fold change, gene MT1385 [17]: −1.43
- log2 Fold change, gene MT1775 [17]: −2.289
- log2 Fold change, gene MT1777 [17]: −2.983
- log2 Fold change, gene MT2088 [17]: −3.883
- log2 Fold change, gene MT2090 [17]: −3.141
- log2 Fold change, gene MT3209 [17]: −1.322
- log2 Fold change, gene MT3210 [17]: −4.337
- Counts per million (CPM) WT_HC102A1, gene MT0598 [18]: 57.71 CPM
- Counts per million (CPM) WT_HC102A1, gene MT0600 [18]: 129.6 CPM
- Counts per million (CPM) WT_HC102A1, gene MT1096 [18]: 9.103 CPM
- Counts per million (CPM) WT_HC102A1, gene MT1385 [18]: 56.65 CPM
- Counts per million (CPM) WT_HC102A1, gene MT1775 [18]: 172.1 CPM
- Counts per million (CPM) WT_HC102A1, gene MT1777 [18]: 11.46 CPM
- Counts per million (CPM) WT_HC102A1, gene MT2088 [18]: 254.1 CPM
- Counts per million (CPM) WT_HC102A1, gene MT2090 [18]: 3,874.46 CPM
- Counts per million (CPM) WT_HC102A1, gene MT3209 [18]: 5.689 CPM
- Counts per million (CPM) WT_HC102A1, gene MT3210 [18]: 0.5689 CPM
- Counts per million (CPM) WT_HC102A2, gene MT0598 [19]: 66.55 CPM
- Counts per million (CPM) WT_HC102A2, gene MT0600 [19]: 211.3 CPM
- Counts per million (CPM) WT_HC102A2, gene MT1096 [19]: 3.811 CPM
- Counts per million (CPM) WT_HC102A2, gene MT1385 [19]: 35.06 CPM
- Counts per million (CPM) WT_HC102A2, gene MT1775 [19]: 61.8 CPM
- Counts per million (CPM) WT_HC102A2, gene MT1777 [19]: 24.1 CPM
- Counts per million (CPM) WT_HC102A2, gene MT2088 [19]: 225.6 CPM
- Counts per million (CPM) WT_HC102A2, gene MT2090 [19]: 5,782.55 CPM
- Counts per million (CPM) WT_HC102A2, gene MT3209 [19]: 5.394 CPM
- Counts per million (CPM) WT_HC102A2, gene MT3210 [19]: 0.1173 CPM
- Counts per million (CPM) WT_HC102A1 (gene MT3514 (Rv3406), replicate 1): 494.4 CPM
- Counts per million (CPM) WT_HC102A2 (gene MT3514 (Rv3406), replicate 2): 168 CPM
- WT DMSO/WT HC102A Fold change (gene MT3514 (Rv3406)): 6.242
- log2 Fold change (gene MT3514 (Rv3406)): 2.642
- Counts per million (CPM) WT_HC102A1 (gene MT3515 (Rv3407), replicate 1): 191.1 CPM
- Counts per million (CPM) WT_HC102A2 (gene MT3515 (Rv3407), replicate 2): 103.1 CPM
- WT DMSO/WT HC102A Fold change (gene MT3515 (Rv3407)): 2.831
- log2 Fold change (gene MT3515 (Rv3407)): 1.501
